The test deals with G1 NIH 3T3 nuclei. Briefly: Cell-free DNA replication assay: G1 nuclei in HeLa S phase cytosol, biotin-dUTP incorporation, percentage of nuclei replicating (staining yellow). Conditions: about 50% yellow staining nuclei without inhibitor. In kind it is biochemical, mouse.

Experimental: Nuclear templates were prepared by Dounce homogenisation as described previously, but from NIH 3T3 cells. G0, quiescent, cells were prepared by allowing NIH 3T3 cells to proliferate until they reached confluence and arrested their proliferation. They were released from quiescence by trypsinization and replating at ¼ the cell density. Cells were harvested as described previously (Krude et al., 1997) at measured times after release from quiescence. The 3T3 cells treated this way pass through G1 and begin to enter S phase synchronously about 21 hrs later. Nuclei and cytosolic extract were produced by hypotonically swelling the cells, scrape harvesting and Dounce-homogenizing. […]
In vitro replication assays were performed in 50 μl reactions in 1.5 ml polypropylene tubes (Sarstedt or Eppendorf). […] Biotin-dUTP incorporation was detected by staining with fluorescein-streptavidin, whilst total DNA was visualized by propidium iodide. […] The percentage of nuclei replicating were calculated from many prints of confocal images. […]
The competence of G1 NIH 3T3 nuclei to replicate was determined by repeating the collection of G1 nuclei at different times following release from G0 arrest and incubating the nuclei with S phase cytosol in accordance with the procedures of Example 1. […]

Turning to `CC[C@H](CO)Nc1nc(NCc2ccccc2)c2ncn(C(C)C)c2n1` [roscovitin], the “decrease of yellow staining nuclei” value was roughly 5 fold (1 μM) and roughly 5 fold (1 mM).

These data come from patent publication US6521405B1, “Cell-free replication system and uses thereof” (Cancer Research Campaign Technology Limited, priority 1997, dated 2003).
